Measured values taken from patent publication US11174269B2, “Method for producing 1,2,4,5-cyclohexanetetracarboxylic dianhydride” (MITSUBISHI GAS CHEMICAL COMPANY, INC., priority 2017, dated 2021).

Assay: Saturation solubility of 1,2,4,5-cyclohexanetetracarboxylic acid in water
Format: physicochemical
Text: Here, the saturation solubility of 1,2,4,5-cyclohexanetetracarboxylic acid in water is as follows.

- Saturation solubility (concentration of a saturated aqueous solution) (88.2 °C): 29.6 % by mass
- Saturation solubility (concentration of a saturated aqueous solution) (98.3 °C): 33.1 % by mass
- Saturation solubility (concentration of a saturated aqueous solution) (100 °C): 33.7 % by mass
SMILES: O=C(O)C1CC(C(=O)O)C(C(=O)O)CC1C(=O)O (stereo not drawn) [1,2,4,5-cyclohexanetetracarboxylic acid]
